Like-named read-outs stand apart in the source and are kept apart here. Values belong to the molecule of their own block, whether it stands above or below them.
Columns and labels:
[1] = system: G. duodenalis BRIS/91/HEPU/1279; assay: Giardia dose response assay, assemblage B; type: cell-based, Giardia duodenalis; conditions: Giardia duodenalis, 48 h, BRIS/91/HEPU/1279; 48 h; mean ± SD; read-out: IC50 Giardia (48 h)
Protocol: In these assays, compounds were serially diluted (8–12-point doubling dilutions in technical duplicate) in DMSO control media, with all test wells inoculated with parasites (1.5 × 10^4 parasites for BRIS/91/HEPU/1279 and BRIS/91/HEPU/1279m1, or 3 × 10^3 parasites for BRIS/87/HEPU/713). […] All plates were sealed in culture chambers and gassed with 3% O2, 5% CO2 in N2 and incubated at 37 °C for 48 h, with parasites imaged and enumerated at 24 and 48 h. Growth inhibition was calculated as a percentage relative to vehicle controls minus any background as described above and IC50 values were determined using log-linear interpolation as previously described. […] Statistical comparison of IC50 values when required were performed using Student’s t-test.

[2] = system: G. duodenalis BRIS/91/HEPU/1279; assay: Primary Giardia screen at 10 µM (live-cell imaging, automated counting); type: cell-based, Giardia duodenalis; conditions: for inhibition at 10 µM: Giardia duodenalis
In short: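 Compound added to 10 μM final in medium with 0.2% DMSO, one well each; plates then held in sealed chambers at 3% O2, 5% CO2 in N2; growth imaged and counted automatically at 24 and 48 h; values normalised to vehicle wells minus media blank.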

[3] = system: Neonatal foreskin fibroblast (NFF) cells; assay: Mammalian cell cytotoxicity assay (sulforhodamine B); type: cell-based, human; conditions: Homo sapiens, NFF, Table S2; max 10 µM; read-out: NFF IC50
Protocol: The selectivity of compounds of interest was assessed against NFF cells. Assays were performed using sulforhodamine B and included media only, negative (no compound, no DMSO), and vehicle (DMSO) controls as previously described. A chloroquine control plate was included in each assay. […] Repurchased SN00797640 was tested in dose–response from 100 µM against NFF. Selectivity indices (SI) were calculated by dividing mammalian cell IC50 values by G. duodenalis BRIS/91/HEPU/1279 IC50 values.

[4] = system: Acinetobacter baumannii (ATCC 19606); assay: Anti-bacterial activity assay; type: cell-based; conditions: ATCC19606, 50 µM
Protocol: (§1) The activity of compounds against methicillin resistant Staphylococcus aureus (ATCC 43300), Escherichia coli (ATCC 25922), Acinetobacter baumannii (ATCC 19606) and Klebsiella pneumoniae (ATCC 700603) was assessed at 50 µM in duplicate as previously described. In brief, mid-log phase bacteria cultures were added to 384-well microtiter plate wells containing compound to final cell density of 5 × 10^5 CFU/mL in 50 µL. Plates were then covered and incubated at 37 °C for 18 h without shaking. Inhibition of bacterial growth was determined by measuring absorbance at 600 nm (Tecan M1000 Pro monochromator plate reader) and calculating percentage growth inhibition relative to the negative media and bacteria without inhibitors. Vancomycin hydrochloride (Sigma-Aldrich an affiliate of Merck KGaA, Darmstadt, Germany, #861987) and colistin sulfate (Sigma-Aldrich an affiliate of Merck KGaA, Darmstadt, Germany, C4461) were on each plate as positive controls for Gram-positive (S. aureus) and Gram-negative (E. coli, A. baumannii and K. pneumoniae) bacteria, respectively.

[5] = system: Escherichia coli (ATCC 25922); assay: Anti-bacterial activity assay; type: cell-based; conditions: Escherichia coli, ATCC25922, 50 µM; read-out: Bacterial Inhibition E. coli
Protocol: as §1

[6] = system: Klebsiella pneumoniae (ATCC 700603); assay: Anti-bacterial activity assay; type: cell-based; conditions: ATCC700603, 50 µM, read-out: Bacterial Inhibition K. pneumoniae
Protocol: as §1

[7] = system: methicillin resistant Staphylococcus aureus (ATCC 43300); assay: Anti-bacterial activity assay; type: cell-based; conditions: Staphylococcus aureus, ATCC43300, 50 µM; read-out: Bacterial Inhibition S. aureus
Protocol: as §1

[8] = 48 h, first singlicate assay, read-out: % Inhibition n=1 48h

Compound: CC(C)N1C(=O)c2ccccc2Oc2cc(NC(=O)C3CCCCC3)ccc21 [SN00797659]
IC50 [1]: > 10 µM

Compound: CCOc1ccc(C(=O)Nc2ccc3c(c2)N(C(C)C)C(=O)c2ccccc2O3)cc1 [SN00797660]
inhibition at 10 µM [2, 8]: 33.8%
IC50 [1]: > 10 µM

Compound: CC(C)N1C(=O)c2ccccc2Oc2cc(NC(=O)c3ccccc3)ccc21 [SN00797661]
IC50 [1]: > 10 µM

Compound: COc1ccc(OCC(=O)Nc2ccc3c(c2)Oc2ccccc2C(=O)N3C(C)C)cc1 [SN00797662]
IC50 [1]: > 10 µM

Compound: Cc1ccc(C(=O)Nc2ccc3c(c2)Oc2ccccc2C(=O)N3C(C)C)cc1F [SN00797663]
IC50 [1]: > 10 µM

Compound: CCn1ccc(C(=O)Nc2ccc3c(c2)Oc2ccccc2C(=O)N3C(C)C)n1 [SN00797664]
IC50 [1]: > 10 µM

Compound: Cc1cc2[nH]c(C(=O)Nc3ccccc3C)c(CN3CCOCC3)c2s1 [SN00798525, Cc1cc2[nH]c(C(=O)Nc3ccccc3C)c(CN3CCOCC3)c2s1]
Average % Inhibition 48h ([2]; 48 h): > 90%
inhibition at 10 µM ([2]; 24 h, first singlicate assay, read-out: % Inhibition n=1 24h): 91.4%
inhibition at 10 µM ([2]; 24 h, re-assessment, read-out: % Inhibition n=2 24h): 97.9%
inhibition at 10 µM ([2]; 24 h, read-out: Average % Inhibition 24h): 94.7%
inhibition at 10 µM [2, 8]: 96.5%
inhibition at 10 µM ([2]; 48 h, re-assessment, read-out: % Inhibition n=2 48h): 98.8%
inhibition at 10 µM ([2]; 48 h, read-out: Average % Inhibition 48h): 97.6%
IC50 [3]: > 10 µM
inhibition at 50 µM [4]: 4.92%
inhibition at 50 µM [5]: -0.27%
inhibition at 50 µM [6]: 6.11%
inhibition at 50 µM [7]: 22.2%

Results, then the molecule that gave them:

IC50 [1]: > 10 µM
Compound: Cc1ccc(N2CC(C(=O)Nc3ccc4c(c3)Oc3ccccc3C(=O)N4C(C)C)CC2=O)cc1C (stereo not shown) [SN00797653]

IC50 [1]: > 10 µM
Compound: Cc1ccc(N2CC(C(=O)Nc3ccc4c(c3)Oc3ccccc3C(=O)N4C(C)C)CC2=O)cc1 (stereo not shown) [SN00797654]

IC50 [1]: > 10 µM
Compound: CC(C)N1C(=O)c2ccccc2Oc2cc(NC(=O)C3CC(=O)N(c4ccccc4)C3)ccc21 (stereo not shown) [SN00797655]

IC50 [1]: > 10 µM
Compound: Cc1ccc(C(=O)NCC(=O)Nc2ccc3c(c2)Oc2ccccc2C(=O)N3C(C)C)cc1 [SN00797656]

IC50 [1]: > 10 µM
Compound: CC(C)N1C(=O)c2ccccc2Oc2cc(NC(=O)c3cccs3)ccc21 [SN00797657]

IC50 [1]: > 10 µM
Compound: Cc1ccc(C(=O)Nc2ccc3c(c2)Oc2ccccc2C(=O)N3C(C)C)cc1 [SN00797658]

Source: publication PMC9775191, “A Subset Screen of the Compounds Australia Scaffold Library Identifies 7-Acylaminodibenzoxazepinones as Potent and Selective Hits for Anti-Giardia Drug Discovery” (Biomedicines, 2022)
